Experiments:
[1] = test system: homologous passive cutaneous anaphylaxis (PCA) reaction; assay: Effect on homologous passive cutaneous anaphylaxis (PCA) reaction in rats; assay type: in vivo, rats (Male wistar rats); conditions: Rattus norvegicus, 0.5 h; 100 mg/kg oral, 1 hour before antigen, rats; Table 3
Description: This experimental animal model is caused by immediate type allergic reaction, namely, antigen-antibody reaction. In the following, the method of this pharmacological test will be explained.
Method: Male wistar rats (9 weeks old) were intradermally administered 0.05 ml of anti-serum against trinitrophenylated ascaris (TNP-As) into two sites on the shaved dorsal skin. 48 hours later, 3-glycosyloxybenzopyran derivatives and 4-glycosyloxybenzopyran derivatives (test compounds) suspended in 0.5% sodium carboxymethylcellulose (CMCNa) were given orally at a dose of 100 mg/kg to the animals. 1 hour after administration of Test compounds, the animals were induced anaphylaxis by injection of saline (1 ml) dissolving 5 mg of Evans Blue and 1 mg of TNP-As into the tail vein of the animals. 30 minutes after induction of anaphylaxis, animals were anesthetized by ether and killed by bleeding, and were flayed dorsal skin. The leakage of dye was assessed by measuring the diameter (mean of shortest and longest diameter) of the blue spot on the inside surface of dorsal skin. As vehicle control group, only 0.5% CMCNa solution was administered orally, and as positive control group, Tranilast suspended in 0.5% CMCNa were administered orally at a dose of 100 mg/kg to the animals with the same method as the test compounds groups. Each experimental group consisted of 5 rats. [formula] In equation 1: A: leakage of dye in vehicle control group
B: leakage of dye in test compound group or in positive control group
The anti-allergic activity of the compounds of the present invention were compared with that of analogous compounds which were published in the Patent (EP-A-0598117) by PCA reaction. This pharmacological test was performed according to the method described in Test Example 1.

[2] = test system: airway resistance in experimental asthma model; assay: Effect on experimental asthma model in guinea pigs; assay type: in vivo, guinea pigs (Male hadley); conditions: Cavia porcellus; 100 mg/kg oral, OVA challenge, guinea pigs; Table 7
Description: The asthma is typical allergic disease and we carried out this pharmacological test by well known experimental asthma model in guinea pigs in order to confirm that the compounds of the present invention suppress the asthma. In the following, the method of the pharmacological test will be explained.
Method: Male hadley guinea pigs were immunized by intraperitoneal injection of saline (1 ml) containing 5 mg of ovalbumine (OVA) three times at interval of one week. 2 weeks after final immunization, the animals were challenged by inhalation of 1% OVA-saline solution for 1 minute and then the airway resistance of the animals were measured for 30 minutes with PULMOS-1 (Medical Interface Project Station Inc.) after the inhalation. The compounds of the present invention (test compounds) suspended in 0.5% CMCNa were given orally at a dose of 100 mg/kg. As positive control group, Disodium Cromoglicate (DSCG), well known anti-allergic agent, in saline were injected at a dose of 20 mg/kg into the vein of the animals. As vehicle control group, only 0.5% CMCNa solution were given orally. The inhibition (%) of the airway resistance in vehicle control group was calculated according to equation 5 and the result was shown in Table 7. Each experimental group consisted of 5 guinea pigs. [formula] In equation 5: A: Maximum airway resistance in vehicle control group
B: Maximum airway resistance in test compounds group or positive control group

[3] = test system: contact dermatitis induced by picryl chloride; assay: Effect on contact dermatitis induced by picryl chloride in mice (delayed type hypersensitization); assay type: in vivo; conditions: Mus musculus; 100 mg/kg oral, ear thickness 24 hours after challenge; Table 6; read-out: Inhibition (%) against the increase of ear thickness
Description: The delayed type hypersensitization is inhibited by steroid, but can not be effected by known anti-allergic agents. In the following, the method of the pharmacological test will be explained.
Method: Mice, shaved their abdominal skin on previous day, were immunized by applying 0.1 ml of acetone containing 7 mg of picryl chloride to the skin of the abdomen. 7 days after immunization, the thickness of the ear was measured with a dial thickness gauge, then mice were challenged by painting 5 μl of 1% picryl chloride olive oil solution to each side skin of left ear. 24 hours after challenge, the thickness of the left ear was measured again and the increase (%) of thickness was calculated according to equation 2. The compounds of the present invention (test compounds) suspended in 0.5% CMCNa were forcibly administered orally at a dose of 100 mg/kg at 1 hour before and 16 hours after challenge. As vehicle control group, only 0.5% CMCNa solution were administered orally, and as positive control group, Prednisolone, steroid hormone, and Tranilast were administered orally at the doses of 10 mg/kg and 100 mg/kg, respectively.
Increase (%)=(A-B)/B×100 (Equation 2)
A: thickness of the ear at 24 hours after challenge
B: thickness of the ear before challenge
Inhibition(%)=(C-D)/C×100 (equation 3)
C: The increase (%) in vehicle control group
D: The increase (%) in test compounds group or positive control group

SMILES | inhibition in vivo at 100 mg/kg [1] | inhibition in vivo at 100 mg/kg [2] | inhibition in vivo at 100 mg/kg [3]
CC(=O)Oc1ccc2c(O)c(O[C@H]3O[C@H](CO)[C@@H](O)[C@H](O)[C@@H]3O)c(=O)oc2c1 [compound 45] | 46.3% | 46.5% | 46.3%
CCC=CCCOc1ccc2c(O[C@@H]3O[C@H](CO)[C@@H](O)[C@H](O)[C@H]3O)c(O)c(=O)oc2c1 [compound 70] | 58.5% | 67.7% | 57.6%
O=C(Oc1ccc2c(O[C@@H]3O[C@H](CO)[C@@H](O)[C@H](O)[C@H]3O)c(O)c(=O)oc2c1)c1ccccc1 [compound 72] | 46.9% | 49.5% | 47.8%
CC(C)Oc1ccc2c(O)c(O[C@@H]3O[C@H](CO)[C@@H](O)[C@H](O)[C@H]3O)c(=O)oc2c1 [compound 18] | 56.6% | 70.3% | 56.9%
CC(=O)Oc1ccc2c(O[C@@H]3O[C@H](CO)[C@H](O)[C@H](O)[C@H]3O)c(O)c(=O)oc2c1 [compound 105] | 51.4% | 58.8% | 47.8%
O=C(Oc1ccc2c(O[C@@H]3O[C@H](CO)[C@H](O)[C@H](O)[C@H]3O)c(O)c(=O)oc2c1)c1ccccc1 [compound 100] | 42.6% | 67.8% | 44.9%
O=C(Oc1ccc2c(O)c(O[C@H]3O[C@H](CO)[C@@H](O)[C@H](O)[C@@H]3O)c(=O)oc2c1)c1ccccc1 [compound 30] | 41.7% | 47.8% | 48.7%
CCC=CCCOc1ccc2c(O)c(O[C@@H]3O[C@H](CO)[C@H](O)[C@H](O)[C@H]3O)c(=O)oc2c1 [compound 37] | 59.5% | 72.4% | 58.3%
CCCCCCOc1ccc2c(O)c(O[C@@H]3O[C@H](CO)[C@H](O)[C@H](O)[C@H]3O)c(=O)oc2c1 [compound 41] | 60.8% | 77.7% | 65.7%
CCCCCCCCCCCCOc1ccc2c(O[C@@H]3O[C@H](CO)[C@H](O)[C@H](O)[C@H]3O)c(O)c(=O)oc2c1 [compound 96] | 56.6% | 73.1% | 57.8%
COc1ccc2c(O)c(O[C@H]3O[C@H](CO)[C@@H](O)[C@H](O)[C@@H]3O)c(=O)oc2c1 [compound 10, 7-methoxy-4-hydroxy-3-(α-D-mannopyranosyloxy)-2H-1-benzopyran-2-one] | 50.3% | 49% | 47.5%
CC(C)=CCC/C(C)=C/COc1ccc2c(O)c(O[C@@H]3O[C@H](CO)[C@H](O)[C@H](O)[C@H]3O)c(=O)oc2c1 [compound 38] | 59.6% | 73.7% | 57.6%
CCCCOc1ccc2c(O[C@H]3O[C@H](CO)[C@@H](O)[C@H](O)[C@@H]3O)c(O)c(=O)oc2c1 [compound 79] | 47.1% | 50.3% | 46.3%
CCCCCCCCCCCCOc1ccc2c(O[C@@H]3O[C@H](CO)[C@@H](O)[C@H](O)[C@H]3O)c(OC(C)=O)c(=O)oc2c1 [compound 75] | 43.3% | 45.2% | 46.2%
O=c1oc2cc(OCc3ccccc3)ccc2c(O)c1O[C@@H]1O[C@H](CO)[C@H](O)[C@H](O)[C@H]1O [compound 40] | 40.5% | 46.2% | 41.3%
CCCCCCCCCCCCOc1ccc2c(O[C@H]3O[C@H](CO)[C@@H](O)[C@H](O)[C@@H]3O)c(O)c(=O)oc2c1 [compound 82] | 47.3% | 55.1% | 48.7%
O=c1oc2cc(OCc3ccccc3)ccc2c(O)c1O[C@H]1O[C@H](CO)[C@@H](O)[C@H](O)[C@@H]1O [compound 31] | 46.9% | 53.5% | 48.6%
O=C(Oc1ccc2c(O)c(O[C@@H]3O[C@H](CO)[C@@H](O)[C@H](O)[C@H]3O)c(=O)oc2c1)c1ccccc1 [compound 21] | 54.4% | 60.7% | 53.6%
COc1ccc2c(O[C@H]3O[C@H](CO)[C@@H](O)[C@H](O)[C@@H]3O)c(OC(=O)c3ccccc3)c(=O)oc2c1 [compound 87] | 44.7% | 42.5% | 42.4%
CCCCCCCCOc1ccc2c(O)c(O[C@H]3O[C@H](CO)[C@@H](O)[C@H](O)[C@@H]3O)c(=O)oc2c1 [compound 25] | 50.9% | 68.6% | 57.3%
CC(C)Oc1ccc2c(O[C@@H]3O[C@H](CO)[C@H](O)[C@H](O)[C@H]3O)c(O)c(=O)oc2c1 [compound 97] | 55.7% | 63.2% | 58.7%
COc1ccc2c(O[C@@H]3O[C@H](CO)[C@H](O)[C@H](O)[C@H]3O)c(OC(=O)c3ccccc3)c(=O)oc2c1 [compound 101] | 45.2% | 56.2% | 47.2%
CCCCOc1ccc2c(O[C@@H]3O[C@H](CO)[C@H](O)[C@H](O)[C@H]3O)c(O)c(=O)oc2c1 [compound 93] | 57.6% | 60.5% | 59.9%
CCCCOc1ccc2c(O)c(O[C@@H]3O[C@H](CO)[C@H](O)[C@H](O)[C@H]3O)c(=O)oc2c1 [compound 33] | 57.2% | 68.1% | 62.5%
CCC=CCCOc1ccc2c(O)c(O[C@H]3O[C@H](CO)[C@@H](O)[C@H](O)[C@@H]3O)c(=O)oc2c1 [compound 28] | 53.4% | 57.2% | 50.3%
CCCCCCOc1ccc2c(O)c(O[C@H]3O[C@H](CO)[C@@H](O)[C@H](O)[C@@H]3O)c(=O)oc2c1 [compound 44] | 53.5% | 71.2% | 58.2%
COc1ccc2c(O)c(O[C@@H]3O[C@H](CO)[C@H](O)[C@H](O)[C@H]3O)c(=O)oc2c1 [compound 11, 7-methoxy-4-hydroxy-3-(β-D-galactopyranosyloxy)-2H-1-benzopyran-2-one] | 52.1% | 63.3% | 53.3%
O=c1oc2cc(OCc3ccccc3)ccc2c(O)c1O[C@@H]1O[C@H](CO)[C@@H](O)[C@H](O)[C@H]1O [compound 22] | 53.8% | 59.4% | 53.4%

From US5525595A, “3- or 4-glycosyloxybenzopyran derivative and antiallergic agent containing the derivative as active ingredient” (priority 1993, dated 1996)
